Measured values as given in patent US9649317B2, “Heterocyclic compounds and their use for the treatment of neurodegenerative tauopathies” (The Trustees of The University of Pennsylvania, priority 2012, dated 2017).
“Also recorded” adds a separate entry of the source. Where two headings read alike, the source gives them in different places.

Assays:
[1] = Determination of plasma and brain compound concentrations; type: in vivo; settings: mouse, 1 hour after a 5 mg/kg intraperitoneal injection
Experimental: For utility in neurodegenerative diseases, MT-stabilizing compounds must cross the blood-brain barrier (BBB) and enter the brain. As summarized in Table 7, a number of examples show concentrations in the brain that exceed 0.5 μM an hour after administration of a 5 mg/kg dose, with brain-to-plasma concentration ratios of ˜0.3 or higher.
Mouse brains were homogenized in 10 mM ammonium acetate, pH 5.7 (1:2; w/v) using a handheld sonic homogenizer. Mouse plasma was obtained from blood that was collected into a 1.5 ml tube containing 0.5M EDTA solution and which was centrifuged for 10 minutes at 4500 g at 4° C. Aliquots (50 μl) of brain homogenates (50% w/v in 100 mM NH4OAC pH 5.75) or plasma were mixed with 0.2 ml of acetonitrile, centrifuged at 15,000 g, and the resulting supernatant was used for subsequent LC-MS/MS analysis. The LC-MS/MS system was comprised of an Aquity UPLC and a TQ MS that was controlled using MassLynx software (Waters Corporation, Milford, Mass., USA). Compounds were detected using multiple reaction monitoring (MRM) of their specific collision-induced ion transitions. Samples were separated on an Aquity BEH C18 column (1.7 μm, 2.1×50 mm) at 35° C. Operation was in positive electrospray ionization mode, with mobile phase A of 0.1% (v/v) formic acid, and B of acetonitrile with 0.1% (v/v) formic acid. Injections of 5 μl were separated at a flow rate of 0.6 mL/min using a gradient from 5% to 95% B over two minutes, followed by wash and re-equilibration steps. The MS was operated with a desolvation temperature of 450° C. and a source temperature of 150° C. Desolvation and source nitrogen gas flows were 900 L/hr and 50 L/hr, respectively. Source and MS/MS voltages were optimized for each compound using the MassLynx auto tune utility. To account for possible matrix effects on analytes, standard curves were generated for each compound from brain homogenate and plasma samples that had compound added at 24, 240, 2400 and 24000 nM. The standard curve samples were extracted and analyzed in an identical fashion as the corresponding tissue-derived samples, and peak areas were plotted against concentration and a linear regression curve was used to obtain estimated concentrations of the tissue-derived samples using the peak areas. In all cases, the tissue-derived sample peak areas fell within the linear portion of standard curves that were prepared and analyzed concurrently with the samples.

[2] = system: acetyl-tubulin (AcTub) in HEK/QBI 293 cells; assay: Microtubule stabilization assay: acetyl-tubulin (AcTub) ELISA after compound treatment; type: cell-based; settings: for AcTub elevation compared with epoD: at 100 nM (FIG. 1); for change in acetyl-tubulin (AcTub), in words: relative to vehicle-treated cells (FIG. 1, Tables 5 and 6)
Description: (§1) The MT-stabilizing properties of triazolopyrimidines was investigated in a cell-free MT-polymerization assay, as well in a cell-based assay (HEK/QBI 293 cells) that measures changes in acetyl-tubulin (AcTub), a biomarker of stable MTs. (Laferriere, N.; MacRae, T.; Brown, D. Tubulin synthesis and assembly in differentiating neurons. Biochemistry and Cell Biology 1997, 75, 103-117; Black, M.; Baas, P.; Humphries, S. Dynamics of alpha-tubulin deacetylation in intact neurons. J Neurosci 1989, 9, 358).
as §1, with “properties of additional triazolopyrimidines, phenylpyrimidines, and pyridazines was investigated” for “properties of triazolopyrimidines was investigated”, “well in the aforementioned cell-based assay” for “well in a cell-based assay”, “of stable MTs (Laferriere, N.;” for “of stable MTs. (Laferriere, N.;”
The HEK293 cell subclone, QBI293, was maintained in DMEM supplemented with 10% fetal calf or bovine serum, 1% penicillin/streptomycin antibiotic solution and 1% glutamine at 37° C. in 5% CO2. Cells were plated into 6-well plates at a density of 800,000 cells/well. […] Test compounds were added at multiple concentrations to the test wells and incubated for 4 h. Subsequently, the media was removed and the cells were washed with 1 ml of ice-cold phosphate-buffered saline (PBS). After removal of PBS, 0.2 ml of ice-cold RIPA (0.5% sodium deoxycholate, 0.1% SDS, 1% NP-40, 5 mM EDTA, pH 8.0) containing protease inhibitor mix (1 μg/ml each of pepstatin, leupeptin, TLCK, TPCK and trypsin inhibitor), 1 mM PMSF and 1 μM trichostatin A was added to the wells. The wells were then scraped using a cell scraper and pipetted into 1.5 ml microfuge tubes. The tubes were sonicated with a handheld sonicator at 20× on a power setting of 2, followed by centrifugation for 30 min at 15,000 rpm at 4° C. Supernatants were removed and quantified for protein concentration and the acetyl-tubulin levels were determined using an ELISA as described.
384-well plates were coated with 12G10α-tubulin antibody (Developmental Studies Hybridoma Bank at the University of Iowa; 10 μg/ml) in 30 μl of cold 0.1 M bicarbonate buffer. After overnight incubation at 4° C., the plates were washed with cold PBS, followed by the addition of Block-Ace solution and overnight incubation at 4° C. The blocking solution was removed and 10 μl of EC buffer (0.02 M sodium phosphate, pH 7.0, 2 mM EDTA, 0.4 M NaCl, 0.2% bovine serum albumin, 0.05% CHAPS, 0.4% BlockAce and 0.05% NaN3) was added to each well. Cell culture supernatants were diluted in EC buffer to final protein concentrations of 9, 3, 1.5 and 0.5 μg/30 μl, and 30 μl of each were added to wells in duplicate and plates were subsequently sealed. After overnight incubation at 4° C., the plates were aspirated and washed with cold PBS containing 0.05% Tween-20 and 0.05% thimerisol (PBS-Tween buffer), followed by addition of 30 μl/well of HRP-conjugated acetyl-tubulin antibody (6-11B-1 antibody from Sigma-Aldrich) that was prepared with a Peroxidase Labeling Kit following the manufacturer's instructions that was subsequently diluted 1:1000 in C buffer (0.02 M sodium phosphate, pH 7.0, 2 mM EDTA, 0.4 M NaCl, 1% bovine serum albumin and 0.05% thimerisol). The plates were incubated at room temperature for 4 h on a platform rocker, followed by washing with cold PBS-Tween buffer. Peroxidase substrate solution (30 μl) was added and the reaction was quenched after 5-10 min by addition of 30 μl of 10% phosphoric acid. Plates were read on a SpectraMax M5 plate reader at 450 nm. Because an acetyl-tubulin standard is not available, all data were normalized to a control treatment condition (e.g., no compound addition).

[3] = system: AcTub-positive MTs in HEK/QBI293 cells; assay: Acetyl tubulin immunofluorescence; type: cell-based; settings: 4 h incubation
Experimental: The HEK293 cell subclone, QBI293, was plated onto poly-D-lysine-coated glass coverslips at 50,000 cells/ml in DMEM supplemented with 10% fetal calf or bovine serum, 1% penicillin/streptomycin antibiotic solution and 1% glutamine and maintained overnight at 37° C. in 5% CO2. The next day, cells were left untreated or were treated with 100 nM epothilone D, 100 nM CNDR-51533 or 1 μM colchicine. After an additional 4 h of incubation at 37° C. in 5% CO2, cells were washed twice with PBS, and then fixed for 15 min in PBS containing 4% paraformaldehyde. The cells were again washed twice with PBS, and permeabilized with 0.1% Triton X-100 in PBS for 15 min. Following the Triton X-100 treatment, the cells were washed twice in PBS, and treated with PBS containing 3% bovine serum albumin for 1 h. Acetyl-tubulin antibody was subsequently added (1:1000 dilution) and incubated for 1 h. Cells were then washed cells 3×5 min with 0.1% Triton X-100 in PBS, and secondary antibody (goat-anti-mouse labeled with Alexa fluor 488 at 1:1000) was added and allowed to incubate for 1 h. […] Finally, the cells were washed once with PBS, followed by H2O, and the cover slips were mounted onto slides with Fluoromount G. Images were acquired on a microscope equipped for fluorescence detection. […]

[4] = system: detyrosinated α-tubulin (GluTub); assay: Detyrosinated α-tubulin (GluTub) in the cell-based studies; settings: data not shown
[5] = mouse, in vivo; cited from earlier work
[6] = system: brain α-tubulin that is acetylated (AcTub); assay: Determination of brain acetyl-tubulin levels; type: in vivo, CD1 mice; settings: wild-type mice, once-daily 1 mg/kg dose, 3 days (FIG. 14)
[7] = brain, ip, read-out: Brain nM (SD)
[8] = plasma, ip, read-out: Plasma nM (SD)

Row | concentration at 1 h [1, 7] | Brain/Plasma [1] | concentration at 1 h [1, 8] | Molecule | change in acetyl-tubulin (AcTub), in words [2] | change in detyrosinated α-tubulin (GluTub) [4] | other results
1 | 1480 nM | 0.34 | 4320 nM | C[C@H](Nc1nc(-c2ccccn2)nc(Cl)c1-c1c(F)cc(F)cc1F)C(F)(F)F [CNDR-51552, (S)-6-chloro-2-(pyridin-2-yl)-5-(2,4,6-trifluorophenyl)-N-(1,1,1-trifluoropropan-2-yl)pyrimidin-4-amine] |  |  | 
2 |  |  |  | CNCCCOc1cc(F)c(-c2c(Cl)nc3ncnn3c2N[C@@H](C)C(F)(F)F)c(F)c1 [CNDR-51533, (S)-5-Chloro-6-(2,6-difluoro-4-(3-(methylamino)propoxy)phenyl)-N-(1,1,1-trifluoropropan-2-yl)-[1,2,4]triazolo[1,5-a]pyrimidin-7-amine, reference compound] | dose-dependent elevation in AcTub | significant increases of detyrosinated α-tubulin (GluTub) | AcTub elevation compared with epoD [2]: significantly more effective than epoD; AcTub immunofluorescence, MT structure ([3]; 100 nM, relative to control cells): large increase in highly organized, AcTub-positive MTs; crossing of the blood-brain barrier (BBB), previously described agents [5]: do not cross the BBB
3 | 701 nM |  | 2120 nM | C[C@H](Nc1nc(-c2ccccn2)nc(Cl)c1-c1c(F)cc(OCCCN(C)C)cc1F)C(F)(F)F [CNDR-51561, (S)-6-Chloro-5-(4-(3-(dimethylamino)propoxy)-2,6-difluorophenyl)-2-(pyridin-2-yl)-N-(1,1,1-trifluoropropan-2-yl)pyrimidin-4-amine] |  |  | Kp at 1 h ([1]; brain/plasma, ip): 0.33
4 |  |  |  | CNCCCOc1cc(F)c(-c2c(Cl)nc3ncnn3c2NCC(F)(F)F)c(F)c1 [CNDR-51534, 5-Chloro-6-(2,6-difluoro-4-(3-(methylamino)propoxy)phenyl)-N-(2,2,2-trifluoroethyl)-[1,2,4]triazolo[1,5-a]pyrimidin-7-amine] | dose-dependent elevation in AcTub | significant increases of detyrosinated α-tubulin (GluTub) | AcTub elevation compared with epoD [2]: significantly more effective than epoD
5 |  |  |  | (S)-6-Chloro-5-(2,6-difluoro-4-(3-(methylamino)propoxy)phenyl)-2-(pyridin-2-yl)-N-(1,1,1-trifluoropropan-2-yl)pyrimidin-4-amine [CNDR-51562] |  |  | dose of maximal effect (AcTub increase) ([2]; 4 h treatment): 0.1 µM; Fold-Increase in AcTub ([2]; 4 h treatment, at the dose of maximal effect, relative to control): 6.2 fold
6 | 2870 nM | 0.58 | 4950 nM | C[C@H](Nc1nc(-c2cnccn2)nc(Cl)c1-c1c(F)cc(F)cc1F)C(F)(F)F [CNDR-51549, (S)-6-chloro-2-(pyrazin-2-yl)-5-(2,4,6-trifluorophenyl)-N-(1,1,1-trifluoropropan-2-yl)pyrimidin-4-amine] |  |  | AcTub levels in the brain [6]: increase of AcTub levels in the brains; also recorded: increase in the fraction of brain α-tubulin that is acetylated
7 |  |  |  | COc1cc2c(c(OC)c1OC)-c1ccc(OC)c(=O)cc1[C@@H](NC(C)=O)CC2 [colchicine] |  |  | AcTub immunofluorescence staining ([3]; 1 μM, data not shown): significant loss of AcTub staining
8 |  |  |  | Fc1cc(F)c(-c2c(Cl)nc3ncnn3c2NCC(F)(F)F)c(F)c1 [CNDR-51539, 5-Chloro-N-(2,2,2-trifluoroethyl)-6-(2,4,6-trifluorophenyl)-[1,2,4]triazolo[1,5-a]pyrimidin-7-amine] | dose-dependent elevation in AcTub | significant increases of detyrosinated α-tubulin (GluTub) | 

Row | Molecule | concentration at 1 h [1, 7] | Brain/Plasma [1] | concentration at 1 h [1, 8] | change in acetyl-tubulin (AcTub), in words [2] | change in detyrosinated α-tubulin (GluTub) [4] | other results
9 | C[C@H](Nc1c(-c2c(F)cc(OCCCN(C)C)cc2F)c(Cl)nc2ncnn12)C(F)(F)F [CNDR-51555, (S)-5-Chloro-6-(4-(3-(dimethylamino)propoxy)-2,6-difluorophenyl)-N-(1,1,1-trifluoropropan-2-yl)-[1,2,4]triazolo[1,5-a]pyrimidin-7-amine] | 1350 nM | 0.27 | 4930 nM |  |  | 
